# Calls of active or inactive are those of the source. The calls are words filed in the database; no cut-off is given here.
# Test system: SH-SY5Y
# Experiment: Cytotoxicity against human SH-SY5Y cells assessed as cell death up to […] after 24 hrs by LDH release assay
# Assay type: cell-based
# Conditions: not given
row,SMILES,Activity
1,O=C(Cc1c[nH]c2ccc(Br)cc12)NCCC1CCN(Cc2ccccc2)CC1,Non-Toxic

# Biological target: T1, Acetylcholinesterase (Homo sapiens, UniProt P22303)
# Experiment: Competitive inhibition of recombinant human AChE at 1 to 10 uM using varying levels of acetylthiocholine iodide as substrate pretreated for 5 mins followed by substrate addition measured for 5 mins by Lineweaver-Burk plot analysis
# Conditions: not given
# T1 sequence (P22303 whole entry): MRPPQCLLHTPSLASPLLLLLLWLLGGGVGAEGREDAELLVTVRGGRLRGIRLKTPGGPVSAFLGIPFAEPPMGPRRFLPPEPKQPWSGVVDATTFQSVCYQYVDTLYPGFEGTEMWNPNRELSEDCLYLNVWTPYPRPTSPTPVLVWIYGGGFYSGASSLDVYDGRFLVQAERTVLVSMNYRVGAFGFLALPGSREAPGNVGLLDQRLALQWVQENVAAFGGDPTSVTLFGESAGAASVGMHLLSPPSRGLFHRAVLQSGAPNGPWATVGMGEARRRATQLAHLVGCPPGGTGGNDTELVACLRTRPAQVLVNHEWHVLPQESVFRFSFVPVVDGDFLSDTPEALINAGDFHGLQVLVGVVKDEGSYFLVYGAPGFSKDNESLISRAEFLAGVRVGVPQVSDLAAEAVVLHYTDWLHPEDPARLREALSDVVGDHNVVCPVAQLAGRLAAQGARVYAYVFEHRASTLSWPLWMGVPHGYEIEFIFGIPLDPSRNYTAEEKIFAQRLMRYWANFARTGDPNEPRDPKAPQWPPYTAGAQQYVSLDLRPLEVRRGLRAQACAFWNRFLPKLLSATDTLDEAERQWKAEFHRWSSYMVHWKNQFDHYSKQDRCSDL
row,SMILES,inhibition
1,O=C(Cc1c[nH]c2ccccc12)NCCC1CCN(Cc2ccccc2)CC1,Active

# Test system: Rattus norvegicus
# Experiment: In vivo inhibition of BuChE in Wistar rat at 80 mg/kg, ip measured after 60 mins by Ellman's method relative to control
# Assay type: functional
# Conditions: 1 h
row,SMILES,inhibition in vivo at 80 mg/kg [%]
1,O=C(Cc1c[nH]c2ccc(Br)cc12)NCCC1CCN(Cc2ccccc2)CC1,15

# Biological target: Acetylcholinesterase (Electrophorus electricus) (UniProt O42275)
# Sequence (O42275 24-633 limits assumed): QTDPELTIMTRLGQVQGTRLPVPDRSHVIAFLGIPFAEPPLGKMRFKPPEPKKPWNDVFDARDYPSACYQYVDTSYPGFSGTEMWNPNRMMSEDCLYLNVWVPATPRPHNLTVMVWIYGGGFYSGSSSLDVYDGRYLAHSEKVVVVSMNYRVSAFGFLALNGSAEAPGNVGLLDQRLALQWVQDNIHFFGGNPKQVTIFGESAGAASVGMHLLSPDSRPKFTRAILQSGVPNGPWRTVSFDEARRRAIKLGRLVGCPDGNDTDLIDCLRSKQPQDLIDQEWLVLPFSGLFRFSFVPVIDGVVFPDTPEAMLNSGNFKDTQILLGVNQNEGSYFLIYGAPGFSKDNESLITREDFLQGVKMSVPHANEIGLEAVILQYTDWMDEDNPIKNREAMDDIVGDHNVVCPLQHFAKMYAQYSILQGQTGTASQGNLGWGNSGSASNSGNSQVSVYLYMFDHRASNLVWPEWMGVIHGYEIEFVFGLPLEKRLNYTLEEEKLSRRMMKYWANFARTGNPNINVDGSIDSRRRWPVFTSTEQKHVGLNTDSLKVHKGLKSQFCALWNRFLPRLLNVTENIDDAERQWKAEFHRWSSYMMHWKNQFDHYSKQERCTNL
# Experiment: Binding affinity to electric eel AChE at 20-fold excess by STD-NMR menthod
# Conditions: not given
row,SMILES,Activity
1,O=C(Cc1c[nH]c2ccccc12)NCCC1CCN(Cc2ccccc2)CC1,Active

# Test system: Rattus norvegicus
# Experiment: In vivo inhibition of BuChE in Wistar rat administered ip measured after 60 mins by Ellman's method
# Assay type: functional, organism-based
# Conditions: not given
row,SMILES,inhibition
1,O=C(Cc1c[nH]c2ccc(Br)cc12)NCCC1CCN(Cc2ccccc2)CC1,Dose-dependent effect

# Test system: not listed separately
# Experiment: in vitro
# Conditions: PAMPA
# Description: Permeability of the compound after 2.5 hrs by PAMPA
row,SMILES,Papp at 2.5 h [×10⁻⁶ cm/s]
1,O=C(Cc1c[nH]c2ccc(Br)cc12)NCCC1CCN(Cc2ccccc2)CC1,5.8
2,Cc1[nH]c2ccccc2c1CC(=O)NCCC1CCN(Cc2ccccc2)CC1,2.3
3,O=C(CCc1c[nH]c2ccccc12)NCCC1CCN(Cc2ccccc2)CC1,2.2
4,O=C(Cc1c[nH]c2ccccc12)NCCC1CCN(Cc2ccccc2)CC1,2.4
5,O=C(CCCc1c[nH]c2ccccc12)NCCC1CCN(Cc2ccccc2)CC1,3.9
6,CN(C)CCCN1c2ccccc2Sc2ccccc21 [PROMAZINE],11.8
7,CNCCCN1c2ccccc2CCc2ccccc21 [DESIPRAMINE],11.4
8,Cn1c(=O)c2c(ncn2C)n(C)c1=O [CAFFEINE],0.1
9,Cn1cc(CC(=O)NCCC2CCN(Cc3ccccc3)CC2)c2ccccc21,7.3
10,Cn1cc(C(=O)NCCC2CCN(Cc3ccccc3)CC2)c2ccccc21,4.8
11,CN1C(C(=O)Nc2ccccn2)=C(O)c2ccccc2S1(=O)=O [PIROXICAM],0.1

# Biological target: Acetylcholinesterase (Electrophorus electricus) (UniProt O42275)
# Experiment: Binding affinity to electric eel AChE at 260 uM by trNOESY NMR method
# Conditions: not given
row,SMILES,Activity
1,O=C(Cc1c[nH]c2ccccc12)NCCC1CCN(Cc2ccccc2)CC1,Active

# Test system: not listed separately
# Experiment: in vitro
# Conditions: PAMPA
# Remark: another data set of the same source
# Description: Permeability of the compound at 500 uM after 8 hrs by PAMPA
row,SMILES,"Papp at 8 h, 500 µM [×10⁻⁶ cm/s]"
1,O=C(Cc1c[nH]c2ccc(Br)cc12)NCCC1CCN(Cc2ccccc2)CC1,0.5
2,O=c1ccc2ccccc2o1 [COUMARIN],19.3
3,Cc1[nH]c2ccccc2c1CC(=O)NCCC1CCN(Cc2ccccc2)CC1,0.7
4,O=C(CCc1c[nH]c2ccccc12)NCCC1CCN(Cc2ccccc2)CC1,0.7
5,O=C(Cc1c[nH]c2ccccc12)NCCC1CCN(Cc2ccccc2)CC1,0.1
6,NC(=O)N1c2ccccc2C=Cc2ccccc21 [CARBAMAZEPINE],11.2
7,O=C(CCCc1c[nH]c2ccccc12)NCCC1CCN(Cc2ccccc2)CC1,0.1
8,CO/N=C(\C(=O)N[C@@H]1C(=O)N2C(C(=O)O)=C(CSc3nc(=O)c(=O)[nH]n3C)CS[C@H]12)c1csc(N)n1 [CEFTRIAXONE],0.1
9,Cn1cc(CC(=O)NCCC2CCN(Cc3ccccc3)CC2)c2ccccc21,5.5
10,Cn1cc(C(=O)NCCC2CCN(Cc3ccccc3)CC2)c2ccccc21,4.6
11,Nc1nc2c(ncn2COCCO)c(=O)[nH]1 [ACYCLOVIR],0.1

# Biological target: T2, Cholinesterase (Homo sapiens, UniProt P06276)
# T2 sequence (P06276 whole entry): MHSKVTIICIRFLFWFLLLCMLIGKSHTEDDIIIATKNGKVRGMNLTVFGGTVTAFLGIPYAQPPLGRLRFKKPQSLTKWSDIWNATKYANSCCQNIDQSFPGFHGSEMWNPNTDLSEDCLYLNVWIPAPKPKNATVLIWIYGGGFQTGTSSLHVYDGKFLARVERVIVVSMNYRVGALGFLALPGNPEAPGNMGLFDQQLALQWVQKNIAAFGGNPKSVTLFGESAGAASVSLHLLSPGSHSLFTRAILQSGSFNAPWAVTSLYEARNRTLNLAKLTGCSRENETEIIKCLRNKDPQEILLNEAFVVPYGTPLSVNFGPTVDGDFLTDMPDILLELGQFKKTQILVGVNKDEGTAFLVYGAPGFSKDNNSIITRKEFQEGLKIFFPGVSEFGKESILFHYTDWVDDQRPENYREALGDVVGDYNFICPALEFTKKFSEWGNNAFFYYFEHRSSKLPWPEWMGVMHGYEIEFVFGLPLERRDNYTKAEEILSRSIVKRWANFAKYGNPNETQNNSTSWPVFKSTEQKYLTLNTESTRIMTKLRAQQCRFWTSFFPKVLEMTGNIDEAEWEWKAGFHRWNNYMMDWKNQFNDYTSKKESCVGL
# Experiment: Inhibition of recombinant human serum BuChE using butyrylthiocholine iodide as substrate pretreated for 5 mins followed by substrate addition measured for 5 mins by Ellman's method
# Conditions: not given
row,SMILES,IC50 [nM]
1,O=C(Cc1c[nH]c2ccc(Br)cc12)NCCC1CCN(Cc2ccccc2)CC1,0.68
2,Cc1[nH]c2ccccc2c1CC(=O)NCCC1CCN(Cc2ccccc2)CC1,1.09
3,O=C(CCc1c[nH]c2ccccc12)NCCC1CCN(Cc2ccccc2)CC1,0.89
4,O=C(Cc1c[nH]c2ccccc12)NCCC1CCN(Cc2ccccc2)CC1,0.87
5,O=C(CCCc1c[nH]c2ccccc12)NCCC1CCN(Cc2ccccc2)CC1,12
6,Cn1cc(CC(=O)NCCC2CCN(Cc3ccccc3)CC2)c2ccccc21,0.25
7,Cn1cc(C(=O)NCCC2CCN(Cc3ccccc3)CC2)c2ccccc21,670

# Biological target: Cholinesterase (Equus caballus) (UniProt P81908)
# Sequence (P81908 whole entry): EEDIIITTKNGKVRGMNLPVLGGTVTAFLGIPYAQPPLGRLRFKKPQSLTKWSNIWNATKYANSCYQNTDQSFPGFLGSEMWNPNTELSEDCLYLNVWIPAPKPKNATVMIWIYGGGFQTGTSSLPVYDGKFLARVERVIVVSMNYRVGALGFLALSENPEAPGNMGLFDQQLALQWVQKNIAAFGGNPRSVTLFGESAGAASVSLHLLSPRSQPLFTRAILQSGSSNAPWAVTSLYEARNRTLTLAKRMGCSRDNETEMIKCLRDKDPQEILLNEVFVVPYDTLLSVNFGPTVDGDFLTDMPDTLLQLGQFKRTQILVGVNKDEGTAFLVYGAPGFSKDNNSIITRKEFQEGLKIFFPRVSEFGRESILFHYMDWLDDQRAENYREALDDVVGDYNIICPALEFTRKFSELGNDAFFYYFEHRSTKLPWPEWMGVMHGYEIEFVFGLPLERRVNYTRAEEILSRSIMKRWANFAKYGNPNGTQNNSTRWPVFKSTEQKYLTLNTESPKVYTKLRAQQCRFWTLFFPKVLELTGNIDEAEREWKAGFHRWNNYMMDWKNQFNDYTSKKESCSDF
# Experiment: Binding affinity to equine serum BuChE at 176 uM by trNOESY NMR method
# Conditions: not given
row,SMILES,Activity
1,O=C(Cc1c[nH]c2ccccc12)NCCC1CCN(Cc2ccccc2)CC1,Active

# Biological target: T1, Acetylcholinesterase
# Experiment: Inhibition of recombinant human AChE using acetylthiocholine iodide as substrate pretreated for 5 mins followed by substrate addition measured for 5 mins by Ellman's method
# Conditions: not given
row,SMILES,IC50 [nM]
1,O=C(Cc1c[nH]c2ccc(Br)cc12)NCCC1CCN(Cc2ccccc2)CC1,1410
2,Cc1[nH]c2ccccc2c1CC(=O)NCCC1CCN(Cc2ccccc2)CC1,7270
3,O=C(CCc1c[nH]c2ccccc12)NCCC1CCN(Cc2ccccc2)CC1,5950
4,O=C(Cc1c[nH]c2ccccc12)NCCC1CCN(Cc2ccccc2)CC1,3550
5,O=C(CCCc1c[nH]c2ccccc12)NCCC1CCN(Cc2ccccc2)CC1,1260
6,Cn1cc(CC(=O)NCCC2CCN(Cc3ccccc3)CC2)c2ccccc21,1420
7,Cn1cc(C(=O)NCCC2CCN(Cc3ccccc3)CC2)c2ccccc21,6110

# Biological target: Cholinesterase (Equus caballus) (UniProt P81908)
# Experiment: Binding affinity to equine serum BuChE at 20-fold excess by STD-NMR menthod
# Conditions: not given
row,SMILES,Activity
1,O=C(Cc1c[nH]c2ccccc12)NCCC1CCN(Cc2ccccc2)CC1,Active

# Test system: not listed separately
# Experiment: in vitro
# Conditions: PAMPA
# Remark: another data set of the same source
# Description: Permeability of the compound by PAMPA
row,SMILES,Papp [×10⁻⁶ cm/s]
1,O=c1ccc2ccccc2o1 [COUMARIN],22.1
2,NC(=O)N1c2ccccc2C=Cc2ccccc21 [CARBAMAZEPINE],11.3

# Biological target: T2, Cholinesterase
# Experiment: Mixed-type inhibition of recombinant human serum BuChE at 0.5 to 2 nM using varying levels of butyrylthiocholine iodide as substrate pretreated for 5 mins followed by substrate addition measured for 5 mins by Lineweaver-Burk plot analysis
# Conditions: not given
row,SMILES,inhibition
1,O=C(Cc1c[nH]c2ccccc12)NCCC1CCN(Cc2ccccc2)CC1,Active

# Reference: ChEMBL document CHEMBL4251652, “Chameleon-like behavior of indolylpiperidines in complex with cholinesterases targets: Potent butyrylcholinesterase inhibitors” (Eur J Med Chem, 2018)
